Legend:
Format in all cases: functional
Proline--tRNA ligase = biological target: T1, Proline--tRNA ligase (Plasmodium falciparum (isolate 3D7), UniProt Q8I5R7); experiment: MMV: ProRS recombinant Plasmodium falciparum Prolyl-tRNA-synthetase, assay with yeast tRNA, ATP, and proline and 3 uM MMV malaria box compound, assay read out with kinase glo as % inhibition.
T1 sequence (Q8I5R7 whole entry): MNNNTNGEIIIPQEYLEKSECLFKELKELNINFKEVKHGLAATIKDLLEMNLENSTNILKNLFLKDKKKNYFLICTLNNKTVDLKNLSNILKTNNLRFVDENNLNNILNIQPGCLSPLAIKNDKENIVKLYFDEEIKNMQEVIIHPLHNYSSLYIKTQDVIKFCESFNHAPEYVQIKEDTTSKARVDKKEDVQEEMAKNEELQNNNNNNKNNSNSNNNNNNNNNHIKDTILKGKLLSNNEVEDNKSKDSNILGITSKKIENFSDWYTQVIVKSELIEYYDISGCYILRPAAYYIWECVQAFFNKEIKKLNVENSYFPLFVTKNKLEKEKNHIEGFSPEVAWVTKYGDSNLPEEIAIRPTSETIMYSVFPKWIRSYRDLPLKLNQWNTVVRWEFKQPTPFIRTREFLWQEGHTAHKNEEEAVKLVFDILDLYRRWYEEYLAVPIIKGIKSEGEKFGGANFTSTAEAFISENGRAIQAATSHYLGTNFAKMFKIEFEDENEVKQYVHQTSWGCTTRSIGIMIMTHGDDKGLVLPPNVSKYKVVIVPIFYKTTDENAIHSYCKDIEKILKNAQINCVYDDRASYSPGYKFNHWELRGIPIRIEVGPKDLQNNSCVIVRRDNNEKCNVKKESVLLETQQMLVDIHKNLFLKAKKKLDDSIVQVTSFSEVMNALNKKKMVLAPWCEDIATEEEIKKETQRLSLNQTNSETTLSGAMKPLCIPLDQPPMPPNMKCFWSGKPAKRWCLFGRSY

[1] = biological target: T2, Calcium-dependent protein kinase 4 (Plasmodium falciparum (isolate 3D7), UniProt Q8IBS5); experiment: MMV: CDPK4 Protein kinase inhibition assay using recombinant PfCDPK4, syntide2 peptide substrate, ATP and KinaseGlo to measure % inhibition at 1 uM MMV box compound.
T2 sequence (Q8IBS5 whole entry): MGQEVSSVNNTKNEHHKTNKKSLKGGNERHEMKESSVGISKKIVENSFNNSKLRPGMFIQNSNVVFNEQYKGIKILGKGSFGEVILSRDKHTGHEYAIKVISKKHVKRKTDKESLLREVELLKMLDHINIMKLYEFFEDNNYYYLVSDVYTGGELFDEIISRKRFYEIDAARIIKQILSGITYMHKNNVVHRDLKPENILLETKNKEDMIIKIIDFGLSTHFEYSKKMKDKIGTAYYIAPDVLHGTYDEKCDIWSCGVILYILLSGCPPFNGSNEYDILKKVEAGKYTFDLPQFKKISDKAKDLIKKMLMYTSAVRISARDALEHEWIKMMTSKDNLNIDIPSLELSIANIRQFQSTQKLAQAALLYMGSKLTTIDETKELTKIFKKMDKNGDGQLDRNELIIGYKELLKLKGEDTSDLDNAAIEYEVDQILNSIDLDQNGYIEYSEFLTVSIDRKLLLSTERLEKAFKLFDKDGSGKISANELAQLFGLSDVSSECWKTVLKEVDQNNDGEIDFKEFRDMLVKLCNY

[2] = biological target: T3, Putative uncharacterized protein pk7 (Plasmodium falciparum, UniProt O96214); experiment: Final concentrations were 1 uM ATP, 2 mM DTT, 20 mM MgCl2, 2 mM MnCl2, 0.01% BSA, and 6 ug/ml PK7, in a buffer of 20 mM Tris-HCl (pH 7.5). The enzyme itself was the only substrate present (since autophosphorylation occurs); 100 uM 1NA-PP1 was used as a control inhibitor. Incubation time was 3 hours.
T3 sequence (O96214 whole entry): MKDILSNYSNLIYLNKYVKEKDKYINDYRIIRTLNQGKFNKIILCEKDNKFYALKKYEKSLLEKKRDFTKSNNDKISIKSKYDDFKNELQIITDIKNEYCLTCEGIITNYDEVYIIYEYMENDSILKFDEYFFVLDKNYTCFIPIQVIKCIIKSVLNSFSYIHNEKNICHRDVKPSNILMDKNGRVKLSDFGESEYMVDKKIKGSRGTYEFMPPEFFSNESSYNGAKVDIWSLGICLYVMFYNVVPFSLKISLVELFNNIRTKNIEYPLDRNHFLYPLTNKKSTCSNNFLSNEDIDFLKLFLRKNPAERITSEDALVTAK

Lysine--tRNA ligase = Lysine--tRNA ligase (Plasmodium falciparum (isolate 3D7), UniProt Q8IDJ8); experiment: MMV: KRS recombinant Plasmodium falciparum Lysyl-tRNA-synthetase, assay with yeast tRNA, ATP, and lysine and 3 uM MMV malaria box compound, assay read out with kinase glo as % inhibition.
Lysine--tRNA ligase, sequence (Q8IDJ8 whole entry): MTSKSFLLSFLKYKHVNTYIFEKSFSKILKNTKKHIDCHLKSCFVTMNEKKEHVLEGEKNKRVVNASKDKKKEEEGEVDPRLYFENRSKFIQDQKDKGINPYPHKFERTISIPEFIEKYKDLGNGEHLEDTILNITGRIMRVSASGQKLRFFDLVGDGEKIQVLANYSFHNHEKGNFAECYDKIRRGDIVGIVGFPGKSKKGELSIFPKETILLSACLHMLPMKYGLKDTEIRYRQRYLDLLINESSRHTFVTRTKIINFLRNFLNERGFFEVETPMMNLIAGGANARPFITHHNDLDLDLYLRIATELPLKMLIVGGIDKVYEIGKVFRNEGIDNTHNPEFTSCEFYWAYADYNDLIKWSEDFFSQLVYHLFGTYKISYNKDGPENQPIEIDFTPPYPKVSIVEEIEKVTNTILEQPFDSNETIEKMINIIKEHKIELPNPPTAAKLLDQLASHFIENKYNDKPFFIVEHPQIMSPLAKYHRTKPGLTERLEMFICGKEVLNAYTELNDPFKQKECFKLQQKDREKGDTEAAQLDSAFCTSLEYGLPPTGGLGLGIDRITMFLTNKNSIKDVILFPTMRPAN

[3] = biological target: T4, Mitogen-activated protein kinase (Plasmodium falciparum, UniProt Q25917); experiment: Final concentrations were 1 uM ATP, 0.5 mM DTT, 1 mM MgCl2, 0.5 mg/mL BSA, and 10 ug/ml MAP2 in a buffer of 50 mM HEPES (pH 7.0). 0.5 mg/mL histone III-S served as the substrate (13); 100 uM AMP-PNP, an ATP analog, was used as a control inhibitor. Incubation time was 4 hours.
T4 sequence (Q25917 whole entry): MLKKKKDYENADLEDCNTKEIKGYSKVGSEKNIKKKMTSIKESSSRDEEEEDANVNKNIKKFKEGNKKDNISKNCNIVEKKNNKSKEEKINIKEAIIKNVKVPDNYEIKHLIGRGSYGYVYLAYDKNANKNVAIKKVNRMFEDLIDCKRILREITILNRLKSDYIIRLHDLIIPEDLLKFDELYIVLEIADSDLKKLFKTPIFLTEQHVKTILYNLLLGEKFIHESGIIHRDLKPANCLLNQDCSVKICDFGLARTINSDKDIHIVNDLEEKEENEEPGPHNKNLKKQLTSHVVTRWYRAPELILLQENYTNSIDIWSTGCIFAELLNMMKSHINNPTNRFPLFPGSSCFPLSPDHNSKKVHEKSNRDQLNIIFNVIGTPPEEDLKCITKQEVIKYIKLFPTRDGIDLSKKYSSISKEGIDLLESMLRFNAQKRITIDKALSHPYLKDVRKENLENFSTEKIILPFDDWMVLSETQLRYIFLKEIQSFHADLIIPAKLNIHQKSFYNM

[4] = biological target: T5, Cdk-related protein kinase 6 (Plasmodium falciparum, UniProt O77239); experiment: Final concentrations were 1.5 uM ATP, 5 mM MnCl2, and 15 ug/ml PK6 in a buffer of 100 mM Tris-HCl (pH 7.5). 50 ug/mL MBP was provided as the substrate; 10 uM staurosporine was used as a control inhibitor. Incubation time was 3 hours and 40 minutes.The catalytic activity of each kinase was considered proportional to ATP consumed, as determined from measurements of residual [ATP] with the luciferase-based reagent Kinase-Glo (Promega) following incubation. Luminescence (proportional to residual [ATP]) was measured on the plate readers FLx800 (BioTek Instruments, Winooski, VT, USA) and MicroBeta2.
T5 sequence (O77239 whole entry): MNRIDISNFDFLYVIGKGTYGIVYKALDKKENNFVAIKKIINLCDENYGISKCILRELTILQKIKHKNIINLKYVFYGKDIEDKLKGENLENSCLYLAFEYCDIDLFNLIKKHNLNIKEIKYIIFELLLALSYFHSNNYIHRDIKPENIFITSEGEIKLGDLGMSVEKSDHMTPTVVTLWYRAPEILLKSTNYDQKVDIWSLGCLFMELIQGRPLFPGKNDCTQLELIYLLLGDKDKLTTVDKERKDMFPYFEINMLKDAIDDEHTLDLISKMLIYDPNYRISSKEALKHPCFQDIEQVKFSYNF

[5] = biological target: Calcium-dependent protein kinase 1 (Plasmodium falciparum, UniProt P62344); experiment: MMV: CDPK1 Protein kinase inhibition assay using recombinant PfCDPK1, syntide 2 peptide substrate, ATP and KinaseGlo to measure % inhibition at 1 uM MMV box compound.
Calcium-dependent protein kinase 1, sequence (P62344 whole entry): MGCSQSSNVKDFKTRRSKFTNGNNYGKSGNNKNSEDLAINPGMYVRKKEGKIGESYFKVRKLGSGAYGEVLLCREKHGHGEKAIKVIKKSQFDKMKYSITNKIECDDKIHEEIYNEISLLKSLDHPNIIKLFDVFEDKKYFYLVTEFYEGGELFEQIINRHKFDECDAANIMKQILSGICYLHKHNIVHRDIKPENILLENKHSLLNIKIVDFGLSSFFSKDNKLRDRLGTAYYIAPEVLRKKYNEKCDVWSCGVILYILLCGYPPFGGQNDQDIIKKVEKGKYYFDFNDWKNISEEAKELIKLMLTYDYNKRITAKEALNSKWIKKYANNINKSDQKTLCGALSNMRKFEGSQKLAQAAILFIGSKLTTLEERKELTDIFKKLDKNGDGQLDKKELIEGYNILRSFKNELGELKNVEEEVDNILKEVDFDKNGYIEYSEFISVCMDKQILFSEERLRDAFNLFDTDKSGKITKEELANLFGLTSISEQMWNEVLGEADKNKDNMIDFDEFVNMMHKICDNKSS

| SMILES | IC50 (Proline--tRNA ligase) [nM] | IC50 [1] [nM] | IC50 [2] [nM] | IC50 (Lysine--tRNA ligase) [nM] | IC50 [3] [nM] | IC50 [4] [nM] | IC50 [5] [nM] |
| --- | --- | --- | --- | --- | --- | --- | --- |
| CN(C)CCCNc1c2ccccc2nc2ccccc12 | > 2500 | > 1000 | > 1000 | > 2500 | > 1000 | > 1000 | > 1000 |
| COc1ccc(-c2c(C)nn3c(N)c(C#N)cnc23)cc1OC | > 2500 | > 1000 | > 1000 | > 2500 | > 1000 | > 1000 | > 1000 |
| CSC1=NC(=Nc2c(C)cccc2C)C2(CCC(C(C)(C)C)CC2)N1c1ccc(Cl)cc1 (configuration not stated) | > 2500 | > 1000 | > 1000 | > 2500 | > 1000 | > 1000 | > 1000 |
| COc1ccc(-c2cc3c(SCC(=O)Nc4cc(C(F)(F)F)ccc4Cl)nccn3n2)cc1 | > 2500 | > 1000 | > 1000 | > 2500 | > 1000 | > 1000 | > 1000 |
| COc1ccc(-c2nc(NC(=O)CS(=O)(=O)c3ccc(F)cc3)sc2C)cc1 | > 2500 | > 1000 | > 1000 | > 2500 | > 1000 | > 1000 | > 1000 |
| O=C(O)C1Cc2c([nH]c3ccccc23)C(c2ccc(Cl)cc2Cl)N1 (configuration not stated) | > 2500 | > 1000 | > 1000 | > 2500 | > 1000 | > 1000 | > 1000 |
| COc1cccc(NC(=O)[C@H](C(C)C)n2c(=O)[nH]c3ccccc3c2=O)c1 | > 2500 | > 1000 | > 1000 | > 2500 | > 1000 | > 1000 | > 1000 |
| CCOC(=O)c1cn(CC)c2cc(N(C)CCc3ccc(OC)c(OC)c3)c(F)cc2c1=O | > 2500 | > 1000 | > 1000 | > 2500 | > 1000 | > 1000 | > 1000 |
| O=[N+]([O-])c1ccc(C=NNc2nc3ccccc3[nH]2)cc1 | > 2500 | > 1000 | > 1000 | > 2500 | > 1000 | > 1000 | > 1000 |
| COc1ccc(C2=C(c3ccc(OC)cc3)C3(c4ccccc4)C(=O)C2(c2ccccc2)C2C(=O)N(c4ccc(C)cc4)C(=O)C23)cc1 (configuration not stated) | > 2500 | > 1000 | > 1000 | > 2500 | > 1000 | > 1000 | > 1000 |
| COc1ccccc1CNC(=O)CCn1c(=O)[nH]c2ccccc2c1=O | > 2500 | > 1000 | > 1000 | > 2500 | > 1000 | > 1000 | > 1000 |
| Oc1ccccc1CNCC12CC3CC(CC(C3)C1)C2 | > 2500 | > 1000 | > 1000 | > 2500 | > 1000 | > 1000 | > 1000 |
| CNCCCNc1ccnc2cc(Cl)ccc12 | > 2500 | > 1000 | > 1000 | > 2500 | > 1000 | > 1000 | > 1000 |
| CC1CCN(Cc2ccc(NC(=O)c3cc4ccc5cccnc5c4[nH]3)cc2)CC1 | > 2500 | > 1000 | > 1000 | > 2500 | > 1000 | > 1000 | > 1000 |
| CSc1ccccc1C(=O)Nc1nc(-c2ccccn2)cs1 | > 2500 | > 1000 | > 1000 | > 2500 | > 1000 | > 1000 | > 1000 |
| COc1ccc(C(C)=O)cc1N1C(=O)C2C(C1=O)C1(c3ccccc3)C(=O)C2(c2ccccc2)C(c2ccc(C)cc2)=C1c1ccc(C)cc1 (configuration not stated) | > 2500 | > 1000 | > 1000 | > 2500 | > 1000 | > 1000 | > 1000 |
